Paper PMC12071598, “Piperazine-Substituted Pyranopyridines Exhibit Antiproliferative Activity and Act as Inhibitors of HBV Virion Production” (International Journal of Molecular Sciences, 2025)

Key:
GBM5522 = experiment: Antiproliferative activity, MTT assay, GBM5522; format: cell-based; conditions: low-passage glioblastoma GBM5522, 72 h
GBM6138 = experiment: Antiproliferative activity, MTT assay, GBM6138; format: cell-based; conditions: low-passage glioblastoma GBM6138, 72 h

SMILES	IC50 (GBM5522) [µM]	IC50 (GBM6138) [µM]
CC1(C)Cc2c(C#N)c(SCC(N)=O)nc(N3CCNCC3)c2CO1 [DO11-37, 2-[(5-Cyano-3,3-dimethyl-8-piperazin-1-yl-3,4-dihydro-1H-pyrano[3,4-c]pyridin-6-yl)thio]acetamide]	309 ± 63.3	571 ± 77.7
CC1(C)Cc2c(C#N)c(SCc3ccccc3Cl)nc(N3CCNCC3)c2CO1 [DO11-42, 6-[(2-Chlorobenzyl)thio]-3,3-dimethyl-8-piperazin-1-yl-3,4-dihydro-1H-pyrano[3,4-c]pyridine-5-carbonitrile]	4.2 ± 1.3	51.2 ± 10.7
COc1cccc(NC(=O)CSc2nc(N3CCNCC3)c3c(c2C#N)CC(C)(C)OC3)c1 [DO11-47, 2-[(5-Cyano-3,3-dimethyl-8-piperazin-1-yl-3,4-dihydro-1H-pyrano[3,4-c]pyridin-6-yl)thio]-N-(3-methoxyphenyl)acetamide]	20 ± 6.8	104 ± 22.1
COc1ccccc1NC(=O)CSc1nc(N2CCNCC2)c2c(c1C#N)CC(C)(C)OC2 [DO11-48, 2-[(5-Cyano-3,3-dimethyl-8-piperazin-1-yl-3,4-dihydro-1H-pyrano[3,4-c]pyridin-6-yl)thio]-N-(2-methoxyphenyl)acetamide]	3.8 ± 1.5	27.9 ± 2.6
CC(=O)c1ccc(NC(=O)CSc2nc(N3CCNCC3)c3c(c2C#N)CC(C)(C)OC3)cc1 [DO11-50, N-(4-acetylphenyl)-2-[(5-cyano-3,3-dimethyl-8-piperazin-1-yl-3,4-dihydro-1H-pyrano[3,4-c]pyridin-6-yl)thio]acetamide]	15.9 ± 4.2	54.7 ± 28.7
CNC(=O)c1cc(Oc2ccc(NC(=O)Nc3ccc(Cl)c(C(F)(F)F)c3)cc2)ccn1 [Sorafenib, reference compound]	84 ± 14	–
